These compounds were tested against T1, K2A2 (CSNK2A2A) (Homo sapiens, UniProt P19784) (assay: DSF Tm panel). Conditions: 10 μM compound.
T1 construct: purchased in-house DSF kinase panel (SGC-style construct names; the trailing letter is the construct ID)
Type: binding

T1 sequence (P19784 whole entry): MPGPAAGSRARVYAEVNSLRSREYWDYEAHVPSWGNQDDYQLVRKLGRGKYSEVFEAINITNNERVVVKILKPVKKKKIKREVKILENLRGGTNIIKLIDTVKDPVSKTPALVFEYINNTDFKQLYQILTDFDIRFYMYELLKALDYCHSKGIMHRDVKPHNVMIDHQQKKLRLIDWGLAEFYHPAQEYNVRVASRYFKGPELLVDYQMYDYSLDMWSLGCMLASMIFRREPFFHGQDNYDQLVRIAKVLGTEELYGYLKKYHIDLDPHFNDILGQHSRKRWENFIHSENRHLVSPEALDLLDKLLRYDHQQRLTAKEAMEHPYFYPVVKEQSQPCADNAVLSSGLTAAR

| Compound | ΔTm at 10 µM [°C] |
| --- | --- |
| O=C(NCc1ccc(Cl)cc1Cl)Nc1ccc2cc1OCCOCCNc1ccn3ncc-2c3n1 [compound 20] | 3 |
| O=C(NCc1ccc(Cl)cc1F)Nc1ccc2cc1OCCOCCNc1ccn3ncc-2c3n1 [compound 21] | 4.2 |
| Cc1cc(Cl)ccc1CNC(=O)Nc1ccc2cc1OCCOCCNc1ccn3ncc-2c3n1 [compound 23] | 2.8 |
| Cc1cc(Br)ccc1CNC(=O)Nc1ccc2cc1OCCOCCNc1ccn3ncc-2c3n1 [compound 24] | 0.5 |

These compounds were tested on TAF1A (assay: DSF Tm panel). Conditions: 10 μM compound.
Type: binding

| Compound | ΔTm TAF1A |
| --- | --- |
| O=C(NCc1ccc(Cl)cc1Cl)Nc1ccc2cc1OCCOCCNc1ccn3ncc-2c3n1 [compound 20] | 0,6 °C |
| O=C(NCc1ccc(Cl)cc1F)Nc1ccc2cc1OCCOCCNc1ccn3ncc-2c3n1 [compound 21] | 0,4 °C |
| Cc1cc(Cl)ccc1CNC(=O)Nc1ccc2cc1OCCOCCNc1ccn3ncc-2c3n1 [compound 23] | 0,6 °C |
| Cc1cc(Br)ccc1CNC(=O)Nc1ccc2cc1OCCOCCNc1ccn3ncc-2c3n1 [compound 24] | 0,1 °C |

What follows are compounds tested against T2, SRCA (Homo sapiens, UniProt P12931) (assay: DSF Tm panel). Conditions: 10 μM compound.
T2 construct: purchased in-house DSF kinase panel (SGC-style construct names; the trailing letter is the construct ID)
Type: binding

T2 sequence (P12931 254-536): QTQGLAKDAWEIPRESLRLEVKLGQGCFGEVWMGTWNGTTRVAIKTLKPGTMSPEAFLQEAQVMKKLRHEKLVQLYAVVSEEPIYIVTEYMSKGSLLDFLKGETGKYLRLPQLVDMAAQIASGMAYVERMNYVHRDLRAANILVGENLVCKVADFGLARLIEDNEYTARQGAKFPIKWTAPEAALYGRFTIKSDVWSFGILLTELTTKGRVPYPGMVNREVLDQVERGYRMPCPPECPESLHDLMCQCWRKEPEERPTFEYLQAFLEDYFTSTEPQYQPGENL

| Compound | ΔTm at 10 µM [°C] |
| --- | --- |
| O=C(NCc1ccc(Cl)cc1Cl)Nc1ccc2cc1OCCOCCNc1ccn3ncc-2c3n1 [compound 20] | 1.2 |
| O=C(NCc1ccc(Cl)cc1F)Nc1ccc2cc1OCCOCCNc1ccn3ncc-2c3n1 [compound 21] | 2.6 |
| Cc1cc(Cl)ccc1CNC(=O)Nc1ccc2cc1OCCOCCNc1ccn3ncc-2c3n1 [compound 23] | 1.5 |
| Cc1cc(Br)ccc1CNC(=O)Nc1ccc2cc1OCCOCCNc1ccn3ncc-2c3n1 [compound 24] | 1.7 |

These compounds were tested against T3, TTKA (Homo sapiens, UniProt P33981) (assay: DSF Tm panel). Conditions: 10 μM compound.
T3 construct: purchased in-house DSF kinase panel (SGC-style construct names; the trailing letter is the construct ID)
T3 sequence (P33981 519-808): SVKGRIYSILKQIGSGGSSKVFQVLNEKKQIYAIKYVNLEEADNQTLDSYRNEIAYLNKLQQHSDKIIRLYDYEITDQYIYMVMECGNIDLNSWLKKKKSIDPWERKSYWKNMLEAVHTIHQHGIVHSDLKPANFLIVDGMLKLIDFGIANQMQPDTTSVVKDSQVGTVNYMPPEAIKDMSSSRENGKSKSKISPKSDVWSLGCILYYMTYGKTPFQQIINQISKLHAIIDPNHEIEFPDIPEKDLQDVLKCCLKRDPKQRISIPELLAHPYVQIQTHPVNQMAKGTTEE
Type: binding

| Compound | ΔTm at 10 µM [°C] |
| --- | --- |
| O=C(NCc1ccc(Cl)cc1Cl)Nc1ccc2cc1OCCOCCNc1ccn3ncc-2c3n1 [compound 20] | 1.2 |
| O=C(NCc1ccc(Cl)cc1F)Nc1ccc2cc1OCCOCCNc1ccn3ncc-2c3n1 [compound 21] | 1.8 |
| Cc1cc(Cl)ccc1CNC(=O)Nc1ccc2cc1OCCOCCNc1ccn3ncc-2c3n1 [compound 23] | 1.8 |
| Cc1cc(Br)ccc1CNC(=O)Nc1ccc2cc1OCCOCCNc1ccn3ncc-2c3n1 [compound 24] | 2.6 |

What follows are compounds tested against T4, GAKA (Homo sapiens, UniProt O14976) (assay: DSF Tm panel). Conditions: 10 μM compound.
T4 construct: purchased in-house DSF kinase panel (SGC-style construct names; the trailing letter is the construct ID)
T4 sequence (O14976 14-351): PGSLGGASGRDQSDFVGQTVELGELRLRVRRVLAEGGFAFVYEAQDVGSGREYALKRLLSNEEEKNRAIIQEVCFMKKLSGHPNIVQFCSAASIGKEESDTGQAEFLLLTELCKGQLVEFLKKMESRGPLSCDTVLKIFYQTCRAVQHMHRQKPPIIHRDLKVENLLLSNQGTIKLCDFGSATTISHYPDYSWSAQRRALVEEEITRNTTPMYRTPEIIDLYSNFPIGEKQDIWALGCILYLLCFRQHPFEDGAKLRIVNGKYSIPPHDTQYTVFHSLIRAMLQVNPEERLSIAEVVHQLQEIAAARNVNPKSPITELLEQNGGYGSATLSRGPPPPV
Type: binding

| Compound | ΔTm at 10 µM [°C] |
| --- | --- |
| O=C(NCc1ccc(Cl)cc1Cl)Nc1ccc2cc1OCCOCCNc1ccn3ncc-2c3n1 [compound 20] | 2.4 |
| O=C(NCc1ccc(Cl)cc1F)Nc1ccc2cc1OCCOCCNc1ccn3ncc-2c3n1 [compound 21] | 3.9 |
| Cc1cc(Cl)ccc1CNC(=O)Nc1ccc2cc1OCCOCCNc1ccn3ncc-2c3n1 [compound 23] | 2.8 |
| Cc1cc(Br)ccc1CNC(=O)Nc1ccc2cc1OCCOCCNc1ccn3ncc-2c3n1 [compound 24] | 5.9 |

These compounds were tested against T5, STK6A (Homo sapiens, UniProt O14965) (assay: DSF Tm panel). Conditions: 10 μM compound.
T5 construct: purchased in-house DSF kinase panel (SGC-style construct names; the trailing letter is the construct ID)
T5 sequence (O14965 122-403): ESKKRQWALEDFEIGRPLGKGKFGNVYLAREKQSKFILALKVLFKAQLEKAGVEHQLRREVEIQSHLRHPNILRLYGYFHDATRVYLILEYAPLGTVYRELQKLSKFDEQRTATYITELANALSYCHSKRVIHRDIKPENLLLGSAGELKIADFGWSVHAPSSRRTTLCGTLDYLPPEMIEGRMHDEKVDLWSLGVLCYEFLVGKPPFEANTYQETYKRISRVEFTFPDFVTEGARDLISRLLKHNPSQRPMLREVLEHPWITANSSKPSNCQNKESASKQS
Type: binding

| Compound | ΔTm at 10 µM [°C] |
| --- | --- |
| O=C(NCc1ccc(Cl)cc1Cl)Nc1ccc2cc1OCCOCCNc1ccn3ncc-2c3n1 [compound 20] | 7.4 |
| O=C(NCc1ccc(Cl)cc1F)Nc1ccc2cc1OCCOCCNc1ccn3ncc-2c3n1 [compound 21] | 6.9 |
| Cc1cc(Cl)ccc1CNC(=O)Nc1ccc2cc1OCCOCCNc1ccn3ncc-2c3n1 [compound 23] | 5.6 |
| Cc1cc(Br)ccc1CNC(=O)Nc1ccc2cc1OCCOCCNc1ccn3ncc-2c3n1 [compound 24] | 5.4 |

What follows are compounds tested against T6, GSK3BB (Homo sapiens, UniProt P49841) (assay: DSF Tm panel). Conditions: 10 μM compound.
T6 construct: purchased in-house DSF kinase panel (SGC-style construct names; the trailing letter is the construct ID)
Type: binding

T6 sequence (P49841 35-386): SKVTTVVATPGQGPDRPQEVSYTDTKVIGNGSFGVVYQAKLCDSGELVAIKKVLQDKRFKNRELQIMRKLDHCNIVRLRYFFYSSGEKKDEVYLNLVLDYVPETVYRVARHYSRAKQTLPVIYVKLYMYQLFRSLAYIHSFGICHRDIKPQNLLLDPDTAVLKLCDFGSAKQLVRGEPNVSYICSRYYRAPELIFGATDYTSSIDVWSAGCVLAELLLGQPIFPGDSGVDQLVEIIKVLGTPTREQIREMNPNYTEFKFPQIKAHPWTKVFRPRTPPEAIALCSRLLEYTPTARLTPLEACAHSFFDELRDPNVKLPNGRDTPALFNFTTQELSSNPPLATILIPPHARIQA

| Compound | ΔTm at 10 µM [°C] |
| --- | --- |
| O=C(NCc1ccc(Cl)cc1Cl)Nc1ccc2cc1OCCOCCNc1ccn3ncc-2c3n1 [compound 20] | 0.6 |
| O=C(NCc1ccc(Cl)cc1F)Nc1ccc2cc1OCCOCCNc1ccn3ncc-2c3n1 [compound 21] | 0.2 |
| Cc1cc(Cl)ccc1CNC(=O)Nc1ccc2cc1OCCOCCNc1ccn3ncc-2c3n1 [compound 23] | 0.4 |
| Cc1cc(Br)ccc1CNC(=O)Nc1ccc2cc1OCCOCCNc1ccn3ncc-2c3n1 [compound 24] | -0.2 |

These compounds were tested against T7, BMPR2A (Homo sapiens, UniProt Q13873) (assay: DSF Tm panel). Conditions: 10 μM compound.
T7 construct: purchased in-house DSF kinase panel (SGC-style construct names; the trailing letter is the construct ID)
T7 sequence (Q13873 27-1038): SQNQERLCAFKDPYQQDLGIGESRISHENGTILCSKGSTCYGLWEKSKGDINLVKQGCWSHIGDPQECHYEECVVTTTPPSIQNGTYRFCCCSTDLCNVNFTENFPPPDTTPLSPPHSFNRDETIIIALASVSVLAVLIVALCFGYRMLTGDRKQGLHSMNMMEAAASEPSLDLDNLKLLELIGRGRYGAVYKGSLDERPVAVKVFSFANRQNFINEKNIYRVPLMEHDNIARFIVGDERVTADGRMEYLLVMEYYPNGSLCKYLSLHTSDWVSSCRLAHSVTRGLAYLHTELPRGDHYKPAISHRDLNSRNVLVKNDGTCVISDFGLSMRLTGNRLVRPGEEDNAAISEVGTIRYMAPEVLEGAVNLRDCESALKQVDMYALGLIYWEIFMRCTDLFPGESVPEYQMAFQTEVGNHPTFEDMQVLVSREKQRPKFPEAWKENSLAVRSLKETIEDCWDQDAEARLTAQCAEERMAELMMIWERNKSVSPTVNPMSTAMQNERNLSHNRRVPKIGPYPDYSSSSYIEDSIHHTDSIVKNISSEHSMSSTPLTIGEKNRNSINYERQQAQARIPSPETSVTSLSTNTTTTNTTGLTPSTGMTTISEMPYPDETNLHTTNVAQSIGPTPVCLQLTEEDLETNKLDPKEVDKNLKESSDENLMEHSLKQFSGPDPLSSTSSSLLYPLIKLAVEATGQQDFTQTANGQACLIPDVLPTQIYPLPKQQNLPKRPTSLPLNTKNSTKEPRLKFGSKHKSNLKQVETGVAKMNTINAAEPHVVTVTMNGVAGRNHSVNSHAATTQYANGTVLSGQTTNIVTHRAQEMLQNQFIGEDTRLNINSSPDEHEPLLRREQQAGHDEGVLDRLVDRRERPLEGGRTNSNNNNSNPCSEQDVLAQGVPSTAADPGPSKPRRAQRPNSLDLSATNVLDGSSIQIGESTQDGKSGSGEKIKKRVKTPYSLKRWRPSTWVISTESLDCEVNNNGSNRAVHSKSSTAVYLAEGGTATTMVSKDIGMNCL
Type: binding

| Compound | ΔTm at 10 µM [°C] |
| --- | --- |
| O=C(NCc1ccc(Cl)cc1Cl)Nc1ccc2cc1OCCOCCNc1ccn3ncc-2c3n1 [compound 20] | 1.1 |
| O=C(NCc1ccc(Cl)cc1F)Nc1ccc2cc1OCCOCCNc1ccn3ncc-2c3n1 [compound 21] | 1.8 |
| Cc1cc(Cl)ccc1CNC(=O)Nc1ccc2cc1OCCOCCNc1ccn3ncc-2c3n1 [compound 23] | 1.5 |
| Cc1cc(Br)ccc1CNC(=O)Nc1ccc2cc1OCCOCCNc1ccn3ncc-2c3n1 [compound 24] | 2.3 |

Each compound was assayed against T8, BRD4 (BRD4A) (Homo sapiens, UniProt O60885) (assay: DSF Tm panel). Conditions: 10 μM compound.
T8 construct: purchased in-house DSF kinase panel (SGC-style construct names; the trailing letter is the construct ID)
Type: binding

| Compound | ΔTm at 10 µM [°C] |
| --- | --- |
| O=C(NCc1ccc(Cl)cc1Cl)Nc1ccc2cc1OCCOCCNc1ccn3ncc-2c3n1 [compound 20] | 1.8 |
| O=C(NCc1ccc(Cl)cc1F)Nc1ccc2cc1OCCOCCNc1ccn3ncc-2c3n1 [compound 21] | 2 |
| Cc1cc(Cl)ccc1CNC(=O)Nc1ccc2cc1OCCOCCNc1ccn3ncc-2c3n1 [compound 23] | 2 |
| Cc1cc(Br)ccc1CNC(=O)Nc1ccc2cc1OCCOCCNc1ccn3ncc-2c3n1 [compound 24] | 1.4 |

The compounds below were run against T9, CAMK1DA (Homo sapiens, UniProt Q8IU85) (assay: DSF Tm panel). Conditions: 10 μM compound.
T9 construct: purchased in-house DSF kinase panel (SGC-style construct names; the trailing letter is the construct ID)
Type: binding

T9 sequence (Q8IU85 whole entry): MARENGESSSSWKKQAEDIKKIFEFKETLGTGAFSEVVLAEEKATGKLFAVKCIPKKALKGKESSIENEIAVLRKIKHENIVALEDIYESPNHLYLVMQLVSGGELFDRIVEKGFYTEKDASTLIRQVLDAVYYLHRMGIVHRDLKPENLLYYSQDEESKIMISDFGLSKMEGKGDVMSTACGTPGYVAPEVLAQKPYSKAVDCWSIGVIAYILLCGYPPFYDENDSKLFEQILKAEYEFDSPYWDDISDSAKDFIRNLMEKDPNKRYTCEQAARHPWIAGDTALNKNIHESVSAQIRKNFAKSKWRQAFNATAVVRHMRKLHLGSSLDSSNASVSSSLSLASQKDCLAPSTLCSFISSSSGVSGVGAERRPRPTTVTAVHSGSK

| Compound | ΔTm at 10 µM [°C] |
| --- | --- |
| O=C(NCc1ccc(Cl)cc1Cl)Nc1ccc2cc1OCCOCCNc1ccn3ncc-2c3n1 [compound 20] | 1 |
| O=C(NCc1ccc(Cl)cc1F)Nc1ccc2cc1OCCOCCNc1ccn3ncc-2c3n1 [compound 21] | 0.8 |
| Cc1cc(Cl)ccc1CNC(=O)Nc1ccc2cc1OCCOCCNc1ccn3ncc-2c3n1 [compound 23] | 2.1 |
| Cc1cc(Br)ccc1CNC(=O)Nc1ccc2cc1OCCOCCNc1ccn3ncc-2c3n1 [compound 24] | 1.3 |

— PMC12621043, “Un-LOK-ing a New Approach for Conformational Selective Targeting of STK10 (LOK)” (ACS Medicinal Chemistry Letters, 2025)
